Patent US9981940B2, “Aryl sulfide derivatives and aryl sulfoxide derivatives as acaricides and insecticides” (BAYER CROPSCIENCE AKTIENGESELLSCHAFT, priority 2013, dated 2018)
Blank lines part the entries; values can stand above or below the compound they belong to.

Key:
Tetranychus urticae = Tetranychus urticae spray test, OP-resistant (TETRUR); type: in vivo; settings: after 6 days; for pest or weed control at 500 g/ha: Tetranychus urticae, 144 h, read-out: efficacy
Summary of the method: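 Bean leaf discs infested with all stages of an OP-resistant Tetranychus urticae strain sprayed with compound in acetone/DMF with alkylaryl polyglycol ether emulsifier, diluted in water. Efficacy in % scored after 6 days; 100% means all mites killed.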

[1] = log P by HPLC (OECD Guideline 117), method [b] neutral range; type: physicochemical; settings: HPLC; for logP[b]: method [b] neutral range; for chromatographic logP: reversed-phase C18 HPLC column, neutral range, pH 7.8
Protocol: (§1) The log P values were determined analogously to OECD Guideline 117 (EC Directive 92/69/EEC) by HPLC (high-performance liquid chromatography) using reversed-phase columns (C 18), by the following methods:
[b] The LC-MS determination in the neutral range is effected at pH 7.8 with 0.001 molar aqueous ammonium hydrogencarbonate solution and acetonitrile as eluents; linear gradient from 10% acetonitrile to 95% acetonitrile.

[2] = log P by HPLC (OECD Guideline 117), method [a] acidic range; type: physicochemical; settings: for logP[a]: HPLC, method [a] acidic range; for chromatographic logP: reversed-phase C18 HPLC column, acidic range
Protocol: as §1
[a] The LC-MS determination in the acidic range is effected at pH 2.7 with 0.1% aqueous formic acid and acetonitrile (contains 0.1% formic acid) as eluents; linear gradient from 10% acetonitrile to 95% acetonitrile.

[3] = pH 2.7, HPLC method [a], read-out: logP[a]
[4] = pH 2.7, HPLC, pH 2.7, read-out: log P[a]

logP[b] [1]: 2.04
logP[a] [2]: 2.05
SMILES: C=CCn1c([S+]([O-])CC)nn(-c2cc([S+]([O-])CC(F)(F)F)c(C)cc2F)c1=O (centres unmarked) [Example 424]
efficacy (Tetranychus urticae; application rate of 500 g/ha): 90%

logP[b] [1]: 3.63
logP[a] [2]: 3.69
SMILES: Cc1cc(F)c(-n2ccn(C(C)(C)C)c2=O)cc1SCC(F)(F)F [Example 488]
efficacy (Tetranychus urticae; application rate of 500 g/ha): 100%

logP[b] [1]: 3.49
logP[a] [2]: 3.52
SMILES: COn1c(C(C)C)nn(-c2cc(SCC(F)(F)F)c(C)cc2F)c1=O [Example 418]
efficacy (Tetranychus urticae; application rate of 500 g/ha): 90%

logP[b] [1]: 2.92
logP[a] [2]: 2.97
SMILES: COC1=CC(=O)N(c2cc(SCC(F)(F)F)c(Cl)cc2F)C1 [Example 327]
efficacy (Tetranychus urticae; application rate of 500 g/ha): 90%

logP[b] [1]: 3.19
logP[a] [2]: 3.24
SMILES: Cc1cc(F)c(-n2nc(OCc3ccccc3)n(C3CC3)c2=O)cc1[S+]([O-])CC(F)(F)F (centres unmarked) [Example 414]
efficacy (Tetranychus urticae; application rate of 500 g/ha): 100%

logP[b] [1]: 5.04
logP[a] [2]: 5.12
SMILES: CC(C)(C)COc1nn(-c2cc(SCC(F)(F)F)c(Cl)cc2Cl)c(=O)n1C1CC1 [Example 397]
efficacy (Tetranychus urticae; application rate of 500 g/ha): 100%

logP[b] [1]: 1.94
logP[a] [2]: 1.99
SMILES: COC1=CC(=O)N(c2cc([S+]([O-])CC(F)(F)F)c(C)cc2Cl)C1 (centres unmarked) [Example 318]
efficacy (Tetranychus urticae; application rate of 500 g/ha): 90%

logP[b] [1]: 2.51
logP[a] [2]: 2.55
SMILES: C=CCSc1nn(-c2cc([S+]([O-])CC(F)(F)F)c(C)cc2F)c(=O)n1C (racemic) [Example 291]
efficacy (Tetranychus urticae; application rate of 500 g/ha): 100%

logP[b] [1]: 3.44
logP[a] [2]: 3.53
SMILES: CCn1c(SC)nn(-c2cc(SCC(F)(F)F)c(C)cc2F)c1=O [Example 269]
efficacy (Tetranychus urticae; application rate of 500 g/ha): 100%

logP[b] [1]: 2.28
logP[a] [2]: 2.34
SMILES: Cc1cc(C)c([S+]([O-])CC(F)(F)F)cc1-n1ncn(C(C)(C)C)c1=O (centres unmarked) [Example 372]
efficacy (Tetranychus urticae; application rate of 500 g/ha): 100%

logP[b] [1]: 3.83
logP[a] [2]: 3.91
SMILES: Cc1cc(F)c(-n2nc(SCC3CC3)n(C)c2=O)cc1SCC(F)(F)F [Example 279]
efficacy (Tetranychus urticae; application rate of 500 g/ha): 100%

logP[b] [1]: 3.40
logP[a] [2]: 3.45
SMILES: CCn1c(Cl)nn(-c2cc(SCC(F)(F)F)c(C)cc2F)c1=O [Example 434]
efficacy (Tetranychus urticae; application rate of 500 g/ha): 100%

logP[b] [1]: 2.23
logP[a] [2]: 2.24
SMILES: COC1=CC(=O)N(c2cc([S+]([O-])CC(F)(F)F)c(Cl)cc2Cl)C1 (racemic) [Example 314]
efficacy (Tetranychus urticae; application rate of 500 g/ha): 100%

logP[b] [1]: 2.36
logP[a] [2]: 2.38
SMILES: Cc1cc(F)c(-n2ncn(-c3ccccc3)c2=O)cc1[S+]([O-])CC(F)(F)F (racemic) [Example 357]
efficacy (Tetranychus urticae; application rate of 500 g/ha): 90%

logP[b] [1]: 2.68
logP[a] [2]: 2.73
SMILES: Cc1cc(F)c(-n2nc(SC(C)C)n(C)c2=O)cc1[S+]([O-])CC(F)(F)F (centres unmarked) [Example 275]
efficacy (Tetranychus urticae; application rate of 500 g/ha): 100%

logP[b] [1]: 1.83
logP[a] [2]: 1.83
SMILES: COC1=CC(=O)N(c2cc([S+]([O-])CC(F)(F)F)c(C)cc2C)C1 (racemic) [Example 313]
efficacy (Tetranychus urticae; application rate of 500 g/ha): 90%

logP[b] [1]: 4.33
logP[a] [2]: 4.35
SMILES: CCCCc1nn(-c2cc(SCC(F)(F)F)c(C)cc2F)c(=O)o1 [Example 461]
efficacy (Tetranychus urticae; application rate of 500 g/ha): 90%

logP[b] [1]: 2.61
logP[a] [2]: 2.63
SMILES: Cc1cc(C)c([S+]([O-])CC(F)(F)F)cc1-n1nnn(C(C)C)c1=O (racemic) [Example 300]
efficacy (Tetranychus urticae; application rate of 500 g/ha): 100%

logP[b] [1]: 2.43
logP[a] [2]: 2.46
SMILES: Cc1cc(F)c(N2CC(OC(C)C)=CC2=O)cc1[S+]([O-])CC(F)(F)F (centres unmarked) [Example 325]
efficacy (Tetranychus urticae; application rate of 500 g/ha): 100%

logP[b] [1]: 4.39
logP[a] [2]: 4.46
SMILES: CCC(C)c1nn(-c2cc(SCC(F)(F)F)c(C)cc2F)c(=S)n1C1CC1 (centres unmarked) [Example 499]
efficacy (Tetranychus urticae; application rate of 500 g/ha): 90%

Further lines, the compound ahead of its results:

SMILES: Cc1cc(F)c(-n2nc([S+]([O-])C(C)C)n(C3CC3)c2=O)cc1SCC(F)(F)F (centres unmarked) [Example 238]
efficacy (Tetranychus urticae; application rate of 500 g/ha): 100%
logP[b] [1]: 2.92
logP[a] [2]: 2.99

SMILES: CCCCc1nn(-c2cc(SCC(F)(F)F)c(C)cc2F)c(=O)n1C1CC1 [Example 71]
efficacy (Tetranychus urticae; application rate of 500 g/ha): 90%
logP[b] [1]: 3.96
logP[a] [2]: 4.05

SMILES: Cc1ccc(-n2nc(-n3nc(Oc4ccccc4)n(C)c3=O)n(C)c2=O)cc1SCC(F)(F)F [Example 192]
efficacy (Tetranychus urticae; application rate of 500 g/ha): 90%
logP[b] [1]: 3.68
logP[a] [2]: 3.76

SMILES: Cc1ccc(-n2nc(OCc3ccccc3)n(C)c2=O)cc1[S+]([O-])CC(F)(F)F (centres unmarked) [Example 178]
efficacy (Tetranychus urticae; application rate of 500 g/ha): 90%
logP[b] [1]: 3.18
logP[a] [2]: 3.23

SMILES: CCCOc1nn(-c2ccc(C)c([S+]([O-])CC(F)(F)F)c2)c(=O)n1C (centres unmarked) [Example 133]
efficacy (Tetranychus urticae; application rate of 500 g/ha): 90%
logP[b] [1]: 2.86
logP[a] [2]: 2.93

SMILES: Cc1cc(F)c(-n2nc(C(C)C)n(C3CC3)c2=O)cc1SCC(F)(F)F [Example 44]
efficacy (Tetranychus urticae; application rate of 500 g/ha): 100%
logP[b] [1]: 3.52
logP[a] [2]: 3.59

SMILES: Cc1cc(F)c(-n2nc(C(F)(F)F)n(C)c2=O)cc1SCC(F)(F)F [Example 9, 2-{2-Fluoro-4-methyl-5-[(2,2,2-trifluoroethyl)sulphanyl]phenyl}-4-methyl-5-(trifluoromethyl)-2,4-dihydro-3H-1,2,4-triazol-3-one]
pest or weed control at 500 g/ha (Tetranychus urticae; application rate of 500 g/ha): 100%
chromatographic logP [1]: 3.53
chromatographic logP [2, 3]: 3.58
chromatographic logP [2, 4]: 3.58

SMILES: Cc1cc(F)c(-n2nc(OC(C)C)n(C)c2=O)cc1SCC(F)(F)F [Example 151]
efficacy (Tetranychus urticae; application rate of 500 g/ha): 100%
logP[b] [1]: 3.53
logP[a] [2]: 3.61

SMILES: CCn1c(C(F)(F)F)nn(-c2cc([S+]([O-])CC(F)(F)F)c(C)cc2F)c1=O (centres unmarked) [Example 58]
efficacy (Tetranychus urticae; application rate of 500 g/ha): 90%
logP[b] [1]: 2.77
logP[a] [2]: 2.88

SMILES: COc1ccc(-n2nc(C(F)(F)F)n(C3CC3)c2=O)cc1SCC(F)(F)F [Example 52]
efficacy (Tetranychus urticae; application rate of 500 g/ha): 90%
logP[b] [1]: 3.79
logP[a] [2]: 3.84

SMILES: Cc1cc(F)c(-n2nc(CC(C)C)n(C3CC3)c2=O)cc1[S+]([O-])CC(F)(F)F (racemic) [Example 84]
efficacy (Tetranychus urticae; application rate of 500 g/ha): 100%
logP[b] [1]: 2.80
logP[a] [2]: 2.86

SMILES: Cc1cc(F)c(-n2nc(SC(F)(F)F)n(C3CC3)c2=O)cc1SCC(F)(F)F [Example 263]
efficacy (Tetranychus urticae; application rate of 100 g/ha): 100%
logP[b] [1]: 4.01
logP[a] [2]: 4.08

SMILES: CC[S+]([O-])c1nn(-c2cc([S+]([O-])CC(F)(F)F)c(C)cc2F)c(=O)n1C (centres unmarked) [Example 244, 5-(Ethylsulphinyl)-2-{2-fluoro-4-methyl-5-[(2,2,2-trifluoroethyl)sulphinyl]phenyl}-4-methyl-2,4-dihydro-3H-1,2,4-triazol-3-one]
pest or weed control at 500 g/ha (Tetranychus urticae; application rate of 500 g/ha): 100%
chromatographic logP [1]: 1.65
chromatographic logP [2, 3]: 1.69
chromatographic logP [2, 4]: 1.69

SMILES: Cc1cc(F)c(-n2nc([S+](C)[O-])n(C3CC3)c2=O)cc1SCC(F)(F)F (centres unmarked) [Example 230]
efficacy (Tetranychus urticae; application rate of 500 g/ha): 100%
logP[b] [1]: 2.40
logP[a] [2]: 2.45

SMILES: Cc1ccc(-n2nc(OC3CCCCC3)n(C)c2=O)cc1SCC(F)(F)F [Example 155]
efficacy (Tetranychus urticae; application rate of 500 g/ha): 100%
logP[b] [1]: 5.17
logP[a] [2]: 5.22

SMILES: Cc1cc(F)c(-n2nc(OCC(C)(C)C)n(C)c2=O)cc1[S+]([O-])CC(F)(F)F (centres unmarked) [Example 165]
efficacy (Tetranychus urticae; application rate of 500 g/ha): 100%
logP[b] [1]: 3.15
logP[a] [2]: 3.21

SMILES: CCCSc1nn(-c2cc([S+]([O-])CC(F)(F)F)c(C)cc2F)c(=O)n1C1CC1 (centres unmarked) [Example 266]
efficacy (Tetranychus urticae; application rate of 500 g/ha): 100%
logP[b] [1]: 3.17
logP[a] [2]: 3.24
